Earlier results as cited in article PMC10817174, “Integrated drug response prediction models pinpoint repurposed drugs with effectiveness against rhabdomyosarcoma” (PLOS ONE, 2024).

Legend:
GDSC-SJCRH30 cell line = conditions: Table S2, published drug response ref Iorio et al. (2016); cited from earlier work
GDSC-RD cell line = conditions: Table S2, published drug response ref Iorio et al. (2016); cited from earlier work

Compound	Iorio_SJCRH30 (GDSC-SJCRH30 cell line)	Iorio_RD (GDSC-RD cell line)
O=C(NC1CCNCC1)c1[nH]ncc1NC(=O)c1c(Cl)cccc1Cl [AT-7519]	R	R
COc1nc(C)cnc1NS(=O)(=O)c1cccnc1-c1ccc(-c2nnco2)cc1 [Zibotentan]	R	R
C=CC(=O)Nc1cc(NC(=O)c2ccc(C)c(NC(=O)c3ccno3)c2)cc(C(F)(F)F)c1 [QL-XI-92]	S	S
FC(F)c1nc2ccccc2n1-c1nc(N2CCOCC2)nc(N2CCOCC2)n1 [ZSTK474]	R	R
C[C@]1(O)C[C@@H](c2nc(-c3ccc4ccc(-c5ccccc5)nc4c3)c3c(N)nccn32)C1 [OSI-906]	S	S
Cc1cccc(-c2[nH]c(C(C)(C)C)nc2-c2ccc3c(c2)OCO3)n1 [SB-505124]	R	R
CC(C)=CC[C@@H](O)C1=CC(=O)c2c(O)ccc(O)c2C1=O [Shikonin]	R	R
COc1ccccc1S(=O)(=O)Nc1ccc2c(c1)CN(C)C(=O)N2 [PFI-1]	R	R
C/C(O)=C(\C#N)C(=O)Nc1cc(Br)ccc1Br [LFM-A13]	R	R
Cn1cncc1[C@@](N)(c1ccc(Cl)cc1)c1ccc2c(c1)c(-c1cccc(Cl)c1)cc(=O)n2C [Tipifarnib]	R	R
O=C(Nc1cccc(Nc2ncc(Br)c(NCCc3cnc[nH]3)n2)c1)N1CCCC1 [BX-912]	R	R
COc1cc2c(Oc3ccc(NC(=O)C4(C(=O)Nc5ccc(F)cc5)CC4)cc3F)ccnc2cc1OCCCN1CCOCC1 [XL-880]	R	R
CC(C)(C)c1cc(NC(=O)Nc2ccc(-c3cn4c(n3)sc3cc(OCCN5CCOCC5)ccc34)cc2)no1 [AC220]	R	R
I-BET-151	R	R
COc1cccc2cc(-c3nc([C@H]4CC[C@H](C(=O)O)CC4)n4ncnc(N)c34)[nH]c12 [OSI-027]	R	R
CNCc1ccc(-c2[nH]c3cc(F)cc4c3c2CCNC4=O)cc1 [AG-014699]	R	R
CCC1=C[C@@H]2CN(C1)Cc1c([nH]c3ccccc13)[C@@](C(=O)OC)(c1cc3c(cc1OC)N(C)[C@H]1[C@@](O)(C(=O)OC)[C@H](OC(C)=O)[C@]4(CC)C=CCN5CC[C@]31[C@@H]54)C2 [Vinorelbine]	R	R
COc1cc2nccc(Oc3ccc(NC(=O)Nc4cc(C)on4)c(Cl)c3)c2cc1OC [AV-951, tivozanib]	R	R
Oc1cccc(-c2nc(N3CCOCC3)c3oc4ncccc4c3n2)c1 [PI-103]	R	R
COCCn1c2c([n+](Cc3cnccn3)c1C)C(=O)c1ccccc1C2=O [YM155]	R	R
C/C=C(/C)C(=O)O[C@H]1C(C)=C2[C@H]([C@@H]1OC(=O)CCCCCCC)[C@@](C)(OC(C)=O)C[C@H](OC(=O)CCC)[C@@]1(O)[C@H]2OC(=O)[C@@]1(C)O [Thapsigargin]	R	R
O=C(NC(COc1ccc2[nH]c(=O)[nH]c2c1)c1ccccc1)c1cccn(Cc2ccc(F)c(F)c2)c1=O (centres unmarked) [KIN001-244]	R	R

Compound	Iorio_SJCRH30 (GDSC-SJCRH30 cell line)	Iorio_RD (GDSC-RD cell line)
CCc1cncnc1N1CCN(Cc2nc3ccc(C(F)(F)F)cc3[nH]2)CC1 [PF-4708671]	R	R
O=C1NC(=O)/C(=C\c2ccc3nccnc3c2)S1 [AS605240]	R	R
COc1cc(N2CCN(C)CC2)ccc1Nc1nc(N)c(C(=O)c2c(Cl)cccc2Cl)s1 [XMD14-99]	R	R
COc1ncc(-c2ccc3nccc(-c4ccnnc4)c3c2)cc1NS(=O)(=O)c1ccc(F)cc1F [GSK2126458]	R	R
CCN1CCN(Cc2ccc(NC(=O)c3ccc(C)c(/C=C/c4cnc5[nH]ccc5c4OC)c3)cc2C(F)(F)F)CC1 [HG-6-64-1]	R	R
CCN1CCN(Cc2ccc(NC(=O)c3ccc(C)c(Oc4ccnc5[nH]ccc45)c3)cc2C(F)(F)F)CC1 [NG-25]	R	R
O=C(O)CNC(=O)c1c(O)c2ccccc2n(Cc2ccccc2)c1=O [IOX2]	R	R
Nc1[nH]nc2nnc(-c3c(-c4ccccc4)nn4ccccc34)cc12 [FR-180204]	R	R
O=c1[nH]cc(F)c(=O)[nH]1 [5-Fluorouracil]	R	R
O=C(/C=C/c1ccc(CN(CCO)CCc2c[nH]c3ccccc23)cc1)NO [LAQ824]	R	R
Cc1cccc(-c2[nH]c(C(C)(C)C)nc2-c2ccc3nccnc3c2)n1 [SB52334]	R	R
CC(=O)Nc1cccc(-n2c(=O)n(C3CC3)c(=O)c3c(Nc4ccc(I)cc4F)n(C)c(=O)c(C)c32)c1 [Trametinib]	R	S
c1ccc2c(CCNc3ccc(Nc4ccncc4)cc3)c[nH]c2c1 [JNJ-26854165]	R	R
O=S(=O)(O)c1ccc2cc(N=Nc3cc(S(=O)(=O)O)c4cccnc4c3O)ccc2c1 [NSC-87877]	R	R
CC/C(=C(\c1ccccc1)c1ccc(OCCN(C)C)cc1)c1ccccc1 [Tamoxifen]	R	R
CCc1cc(Nc2nccc(-c3c(-c4ccc(OC)c(C(=O)Nc5c(F)cccc5F)c4)nc4ccccn34)n2)c(OC)cc1N1CCC(N2CCN(S(C)(=O)=O)CC2)CC1 [GSK-1904529A]	R	R
COc1ccc(COc2ccc(Cc3cnc(N)nc3N)cc2OC)cc1 [GW-2580]	R	R
CC(C)N(CCCNC(=O)Nc1ccc(C(C)(C)C)cc1)C[C@H]1O[C@@H](n2cc(Br)c3c(N)ncnc32)[C@H](O)[C@@H]1O [SGC0946]	R	R
Cc1cccc(Nc2nc(-c3ccncc3)cs2)c1 [STF-62247]	R	R
CN(C)Cc1cccc(N/C(=C2\C(=O)Nc3cc(C(=O)N(C)C)ccc32)c2ccccc2)c1 [BIX02189]	R	R
C=C(c1ccc(C(=O)O)cc1)c1cc2c(cc1C)C(C)(C)CCC2(C)C [Bexarotene]	R	R
CCN1CCC(n2cc(CNc3cc(Cl)c4ncc(C#N)c(Nc5ccc(F)c(Cl)c5)c4c3)nn2)CC1 [KIN001-266]	R	R

Compound	Iorio_SJCRH30 (GDSC-SJCRH30 cell line)	Iorio_RD (GDSC-RD cell line)
CC1(C)CC(=O)c2c(C(F)(F)F)nn(-c3ccc(C(N)=O)c(N[C@H]4CC[C@H](O)CC4)c3)c2C1 [SNX-2112]	R	R
CC(C)(C)c1nc(-c2cccc(NS(=O)(=O)c3c(F)cccc3F)c2F)c(-c2ccnc(N)n2)s1 [Dabrafenib]	R	R
O=C(Nc1ccc(OC(F)(F)F)cc1)c1sccc1NCc1ccnc2ccccc12 [OSI-930]	R	R
O=C(/C=C/c1cccnc1)NCCCCC1CCN(C(=O)c2ccccc2)CC1 [FK866]	R	R
CC(C)CC(=O)Nc1[nH]nc2c1CN(C(=O)C1CCN(C)CC1)C2(C)C [PHA-793887]	R	R
C=CC(=O)Nc1cc(-n2c(=O)ccc3cnc4ccc(-c5cn[nH]c5)cc4c32)ccc1C [QL-X-138]	R	R
COc1cc(O)c2c(c1)/C=C/C[C@H](O)[C@H](O)C(=O)/C=C\C[C@H](C)OC2=O [Oxozeaenol]	R	S
NC(=O)Nc1sc(-c2ccc(F)cc2)cc1C(N)=O [TPCA-1]	R	R
CC1=C(C(=O)Nc2cc3cn[nH]c3cc2F)C(c2ccc(C(F)(F)F)cc2)CC(=O)N1 (centres unmarked) [GSK429286A]	R	R
Nc1ccc(C(=O)Nc2cccc(-c3nc(N4CCOCC4)c4oc5ncccc5c4n3)c2)cn1 [YM201636]	R	R
Cn1ncnc1[C@H]1c2n[nH]c(=O)c3cc(F)cc(c23)N[C@@H]1c1ccc(F)cc1 [BMN-673]	S	R
COc1ccc(-c2cc3nccn3c(Nc3ncccc3C(N)=O)n2)cc1OC [BAY-61-3606]	R	R
COc1cc2ncnc(-n3nc(-c4ccccn4)nc3N)c2cc1OC [CP466722]	R	R
C/C(=C\c1csc(C)n1)[C@@H]1C[C@@H]2O[C@]2(C)CCC[C@H](C)[C@H](O)[C@@H](C)C(=O)C(C)(C)[C@@H](O)CC(=O)O1 [Epothilone-B]	R	R
COC1=CC(c2cc3ccccc3[nH]2)=N/C1=C\c1[nH]c(C)cc1C [Obatoclax-Mesylate]	R	R
CN1CCc2c(c3ccccc3n2Cc2ccc(C(=O)NO)cc2)C1 [Tubastatin-A]	R	S
CO[C@@H]1[C@H](N(C)C(=O)c2ccccc2)C[C@H]2O[C@]1(C)n1c3ccccc3c3c4c(c5c6ccccc6n2c5c31)C(=O)NC4 [Midostaurin]	R	R
N#CC(c1ccnc(NCCc2cccnc2)n1)c1nc2ccccc2s1 (centres unmarked) [AS601245]	R	R
CC(C)[C@H](C(=O)Nc1ccc(C(=O)NO)cc1)c1ccccc1 [AR-42]	R	R
CCc1c2c(nc3ccc(O)cc13)-c1cc3c(c(=O)n1C2)COC(=O)[C@]3(O)CC [SN-38]	R	R
